Experimental data published in paper PMC10114980, “Triple targeting of mutant EGFR^L858R/T790M, COX-2, and 15-LOX: design and synthesis of novel quinazolinone tethered phenyl urea derivatives for anti-inflammatory and anticancer evaluation” (Journal of Enzyme Inhibition and Medicinal Chemistry, 2023).
Where “and” joins values, the source holds several entries; their conditions need not be identical. Equal entries are not always repeated.

Experiments:
[1] = target: T1, double mutant EGFR^L858R/T790M (Homo sapiens, UniProt P00533, L858R/T790M); assay: In vitro EGFR inhibition assay, double mutant; format: biochemical; details: for IC50: double mutant EGFR; for Selectivity (SI): ratio of the IC50 values EGFR^WT/EGFR^L858R/T790M
T1 construct: purchased AssayQuant Technologies, Inc. (Marlboro, MA, USA)

[2] = tested on: LPS-induced ROS production in RAW 264.7 cells; assay: ROS production in LPS-activated RAW 264.7 macrophage cells (DCFH-DA); format: cell-based; details: Mus musculus, RAW264.7; LPS-activated RAW 264.7 cells; mean ± SEM, three replicates
Experimental: (§1) TNF-α and IL-6 production were detected in RAW 264.7 macrophage cell culture supernatants following the induction of inflammation by LPS. Moreover, the probes of oxidative species 2,7-dichlorofluorescein diacetate (DCFH-DA) (Molecular Probes) and NO, 4-amino-5-methylamino-2,7-difluorofluorescein diacetate (DAF-FM diacetate) (Molecular Probes) were used to investigate the antioxidant and NO production inhibitory potential of the test compounds. Briefly, RAW 264.7 cells were cultured in black 96 well plates (200 000 cells/mL, 100 µl/well) for 24 h followed by the incubation with the individual test compounds or the reference drugs at different concentrations (12.5, 25, 50, and 100 µM) for 2 h at 37 °C. LPS was then added at a final concentration of 1 µg/mL for an additional 18 h. The cell culture supernatant was collected from cells treated with the different compounds at 25 µM to measure TNF-α and IL-6 levels (1:10 dilution) using DuoSet ELISA kits (R&D Systems, Minneapolis, MN) following the manufacturer’s instructions. Then, the plates were washed to perform ROS and NO detection assays as detailed in our previous studies[16]^,[27].

[3] = tested on: LPS-induced NO production in RAW 264.7 cells; assay: NO production in LPS-activated RAW 264.7 macrophage cells (DAF-FM diacetate); format: cell-based; details: Mus musculus, RAW264.7; LPS-activated RAW 264.7 cells; mean ± SEM, three replicates
Experimental: as §1

[4] = tested on: LPS-induced TNF-α production in RAW 264.7 cells; assay: TNF-α production in LPS-activated RAW 264.7 cells (ELISA); format: cell-based; details: for TNF-α concentration: LPS-activated RAW 264.7 cells treated with 25 µM of the compound
CCRF-CEM = assay: NCI single dose screen, CCRF-CEM; format: cell-based; details: Homo sapiens, leukaemia, single dose 10^−5 M, read-out: growth inhibition percentage
Experimental: (§2) Screening of the anticancer activity of the newly synthesised compounds (6a, 6c, 6d, 6e, 6j, 6l, 6m, 6n, 6o, and 6p) was performed by the US National Cancer Institute (NCI) using 60 different human tumour cell lines in accordance with standard procedures formerly reported.
(§3) In vitro anticancer screening was carried out for the selected compounds at a single dose (10^−5 M) against 60 different human tumour cell lines of nine different cancer cell types: leukaemia, lung, colon, CNS, melanoma, ovarian, renal, prostate, and breast cancers.

RPMI-8226 = assay: NCI single dose screen, RPMI-8226; format: cell-based; details: Homo sapiens; RPMI-8226, leukaemia; single dose 10^−5 M; read-out: growth inhibition percentage
Experimental: as §2, §3

SR = assay: NCI single dose screen, SR; format: cell-based; details: Homo sapiens, leukaemia, single dose 10^−5 M, read-out: growth inhibition percentage
Experimental: as §2, §3

NCI-H226 = assay: NCI single dose screen, NCI-H226; format: cell-based; details: Homo sapiens; NCI-H226, non-small cell lung cancer; single dose 10^−5 M; read-out: growth inhibition percentage
Experimental: as §2, §3

HT29 = assay: NCI single dose screen, HT29; format: cell-based; details: Homo sapiens, HT-29; HT29, colon cancer; single dose 10^−5 M; read-out: growth inhibition percentage
Experimental: as §2, §3

KM12 = assay: NCI single dose screen, KM12; format: cell-based; details: Homo sapiens; KM12, colon cancer; single dose 10^−5 M; read-out: growth inhibition percentage
Experimental: as §2, §3

SF-268 = assay: NCI single dose screen, SF-268; format: cell-based; details: Homo sapiens; SF-268, CNS cancer; single dose 10^−5 M; read-out: growth inhibition percentage
Experimental: as §2, §3

SF-295 = assay: NCI single dose screen, SF-295; format: cell-based; details: Homo sapiens; SF-295, CNS cancer; single dose 10^−5 M; read-out: growth inhibition percentage
Experimental: as §2, §3

SNB-75 = assay: NCI single dose screen, SNB-75; format: cell-based; details: Homo sapiens; SNB-75, CNS cancer; single dose 10^−5 M; read-out: growth inhibition percentage
Experimental: as §2, §3

LOX IMVI = assay: NCI single dose screen, LOX IMVI; format: cell-based; details: Homo sapiens, melanoma, single dose 10^−5 M, read-out: growth inhibition percentage
Experimental: as §2, §3

M14 = assay: NCI single dose screen, M14; format: cell-based; details: Homo sapiens; M14, melanoma; single dose 10^−5 M; read-out: growth inhibition percentage
Experimental: as §2, §3

SK-MEL-2 = assay: NCI single dose screen, SK-MEL-2; format: cell-based; details: Homo sapiens; SK-MEL-2, melanoma; single dose 10^−5 M; read-out: growth inhibition percentage
Experimental: as §2, §3

UACC-62 = assay: NCI single dose screen, UACC-62; format: cell-based; details: Homo sapiens; UACC-62, melanoma; single dose 10^−5 M; read-out: growth inhibition percentage
Experimental: as §2, §3

IGROV1 = assay: NCI single dose screen, IGROV1; format: cell-based; details: Homo sapiens, IGROV-1; IGROV1, ovarian cancer; single dose 10^−5 M; read-out: growth inhibition percentage
Experimental: as §2, §3

OVCAR-3 = assay: NCI single dose screen, OVCAR-3; format: cell-based; details: Homo sapiens; OVCAR-3, ovarian cancer; single dose 10^−5 M; read-out: growth inhibition percentage
Experimental: as §2, §3

OVCAR-5 = assay: NCI single dose screen, OVCAR-5; format: cell-based; details: Homo sapiens; OVCAR-5, ovarian cancer; single dose 10^−5 M; read-out: growth inhibition percentage
Experimental: as §2, §3

NCI/ADR-RES = assay: NCI single dose screen, NCI/ADR-RES; format: cell-based; details: Homo sapiens, ovarian cancer, single dose 10^−5 M, read-out: growth inhibition percentage
Experimental: as §2, §3

786-0 = assay: NCI single dose screen, 786-0; format: cell-based; details: Homo sapiens; 786-0, renal cancer; single dose 10^−5 M; read-out: growth inhibition percentage
Experimental: as §2, §3

CAKI-1 = assay: NCI single dose screen, CAKI-1; format: cell-based; details: Homo sapiens; CAKI-1, renal cancer; single dose 10^−5 M; read-out: growth inhibition percentage
Experimental: as §2, §3

RXF 393 = assay: NCI single dose screen, RXF 393; format: cell-based; details: Homo sapiens; RXF 393, renal cancer; single dose 10^−5 M; read-out: growth inhibition percentage
Experimental: as §2, §3

PC-3 = assay: NCI single dose screen, PC-3; format: cell-based; details: Homo sapiens; PC-3, prostate cancer; single dose 10^−5 M; read-out: growth inhibition percentage
Experimental: as §2, §3

MCF7 = assay: NCI single dose screen, MCF7; format: cell-based; details: Homo sapiens; MCF7, breast cancer; single dose 10^−5 M; read-out: growth inhibition percentage
Experimental: as §2, §3

[5] = 25 µM, LPS-activated RAW 264.7 cells

T1 sequence (P00533 25-1210 T790M/L858R): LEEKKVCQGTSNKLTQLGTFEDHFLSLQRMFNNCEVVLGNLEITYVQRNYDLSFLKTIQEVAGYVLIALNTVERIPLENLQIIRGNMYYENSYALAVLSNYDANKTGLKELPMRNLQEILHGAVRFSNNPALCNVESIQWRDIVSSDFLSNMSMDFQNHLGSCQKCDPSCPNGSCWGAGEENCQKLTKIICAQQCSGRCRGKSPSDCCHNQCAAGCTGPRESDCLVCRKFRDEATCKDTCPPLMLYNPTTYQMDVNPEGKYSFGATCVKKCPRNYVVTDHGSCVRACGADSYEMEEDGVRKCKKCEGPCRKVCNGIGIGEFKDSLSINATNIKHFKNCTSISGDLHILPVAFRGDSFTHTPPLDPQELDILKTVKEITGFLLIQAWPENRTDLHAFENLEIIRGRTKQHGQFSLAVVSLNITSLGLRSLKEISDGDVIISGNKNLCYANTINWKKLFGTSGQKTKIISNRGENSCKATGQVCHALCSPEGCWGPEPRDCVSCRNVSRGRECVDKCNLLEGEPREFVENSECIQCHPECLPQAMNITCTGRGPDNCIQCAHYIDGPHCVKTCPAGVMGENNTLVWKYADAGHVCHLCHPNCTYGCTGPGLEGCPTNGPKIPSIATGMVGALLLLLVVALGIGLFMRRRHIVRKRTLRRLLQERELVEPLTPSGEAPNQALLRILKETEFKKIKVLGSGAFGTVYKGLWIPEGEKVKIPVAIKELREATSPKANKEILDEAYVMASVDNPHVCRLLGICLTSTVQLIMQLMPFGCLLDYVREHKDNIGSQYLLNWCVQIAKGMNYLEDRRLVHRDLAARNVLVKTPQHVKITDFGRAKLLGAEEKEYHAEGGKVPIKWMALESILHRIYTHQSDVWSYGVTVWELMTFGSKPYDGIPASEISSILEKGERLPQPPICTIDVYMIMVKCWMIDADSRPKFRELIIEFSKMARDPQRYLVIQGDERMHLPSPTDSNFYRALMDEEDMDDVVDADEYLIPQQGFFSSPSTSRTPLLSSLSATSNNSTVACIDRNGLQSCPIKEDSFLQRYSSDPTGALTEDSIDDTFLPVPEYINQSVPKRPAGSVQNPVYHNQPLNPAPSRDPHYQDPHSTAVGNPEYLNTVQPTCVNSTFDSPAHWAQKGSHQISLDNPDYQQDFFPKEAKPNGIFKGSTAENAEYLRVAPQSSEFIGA

Structure (SMILES)	IC50 [1]	Selectivity (SI) [1]	IC50 [2]	IC50 [3]	TNF-α concentration [4]	inhibition at 10 µM (CCRF-CEM)	inhibition at 10 µM (RPMI-8226)	inhibition at 10 µM (SR)	inhibition at 10 µM (NCI-H226)	inhibition at 10 µM (HT29)	inhibition at 10 µM (KM12)	inhibition at 10 µM (SF-268)	inhibition at 10 µM (SF-295)	inhibition at 10 µM (SNB-75)	inhibition at 10 µM (LOX IMVI)	inhibition at 10 µM (M14)	inhibition at 10 µM (SK-MEL-2)	inhibition at 10 µM (UACC-62)	inhibition at 10 µM (IGROV1)	inhibition at 10 µM (OVCAR-3)	also measured
CN1c2ccccc2C(=O)N(NC(=O)Nc2ccccc2)C1c1ccc(F)cc1 (centres unmarked) [Compound 6d, 1-(2-(4-Fluorophenyl)-1-methyl-4-oxo-1,4-dihydroquinazolin-3(2H)-yl)-3-phenylurea]	5.57 ± 1.78 µM	>17.9	37 ± 1 µM	4.12 ± 0.65 µM	1222.00 ± 12.70 pg/mL	< 10%	< 10%	< 10%	< 10%	< 10%	< 10%	< 10%	< 10%	13.8%	< 10%	< 10%	< 10%	15.1%	< 10%	12.5%	inhibition at 10 µM (OVCAR-5): < 10%; inhibition at 10 µM (NCI/ADR-RES): < 10%; inhibition at 10 µM (786-0): 11.9%; inhibition at 10 µM (CAKI-1): 13%; inhibition at 10 µM (RXF 393): < 10%; inhibition at 10 µM (PC-3): 18.6%; inhibition at 10 µM (MCF7): < 10%
CN1c2ccccc2C(=O)N(NC(=O)Nc2ccc(F)cc2)C1c1ccc([N+](=O)[O-])cc1 (centres unmarked) [Compound 6o, 1-(4-Fluorophenyl)-3–(1-methyl-2-(4-nitrophenyl)-4-oxo-1,4-dihydroquinazolin-3(2H)-yl)urea]	36 ± 2.58 µM	1.5	23.4 ± 1.13 µM	1.97 ± 1.45 µM	39.37 pg/mL and 39.37 ± 1.21 pg/mL	< 10%	22.4%	12.2%	< 10%	< 10%	< 10%	< 10%	< 10%	< 10%	29.5%	18%	< 10%	27.4%	< 10%	22.7%	TNF-α level, times lower than celecoxib [4, 5]: ~10 times; TNF-α level, times lower than diclofenac [4, 5]: ~17 times; inhibition at 10 µM (OVCAR-5): < 10%; inhibition at 10 µM (NCI/ADR-RES): < 10%; inhibition at 10 µM (786-0): < 10%; inhibition at 10 µM (CAKI-1): 18.4%; inhibition at 10 µM (RXF 393): < 10%; inhibition at 10 µM (PC-3): 31%; inhibition at 10 µM (MCF7): 17.9%
COc1ccc(NC(=O)NN2C(=O)c3ccccc3N(C)C2c2ccc(OC)cc2)cc1 (centres unmarked) [Compound 6j, 1-(4-Methoxyphenyl)-3-(2-(4-methoxyphenyl)-1-methyl-4-oxo-1,4-dihydroquinazolin-3(2H)-yl)urea]	4.03 ± 1.43 µM	>24.8	24.1 ± 1.08 µM	13.5 ± 0.29 µM	757.30 pg/mL and 757.30 ± 2.50 pg/mL	< 10%	< 10%	11.6%	< 10%	< 10%	< 10%	< 10%	< 10%	< 10%	< 10%	29.6%	< 10%	< 10%	< 10%	10.2%	inhibition at 10 µM (OVCAR-5): < 10%; inhibition at 10 µM (NCI/ADR-RES): < 10%; inhibition at 10 µM (786-0): 34.2%; inhibition at 10 µM (CAKI-1): < 10%; inhibition at 10 µM (RXF 393): < 10%; inhibition at 10 µM (PC-3): 10.8%; inhibition at 10 µM (MCF7): < 10%
CC1N(NC(=O)Nc2ccc(F)cc2)C(=O)c2ccccc2N1C (centres unmarked) [Compound 6l, 1–(1,2-Dimethyl-4-oxo-1,4-dihydroquinazolin-3(2H)-yl)-3-(4-fluorophenyl)urea]	17 ± 1.4 µM	>5.8	37.9 ± 1 µM	5.24 ± 0.5 µM	1250.00 ± 5.82 pg/mL	< 10%	< 10%	< 10%	< 10%	< 10%	< 10%	< 10%	< 10%	< 10%	< 10%	< 10%	< 10%	< 10%	< 10%	16.9%	inhibition at 10 µM (OVCAR-5): < 10%; inhibition at 10 µM (NCI/ADR-RES): < 10%; inhibition at 10 µM (786-0): < 10%; inhibition at 10 µM (CAKI-1): < 10%; inhibition at 10 µM (RXF 393): < 10%; inhibition at 10 µM (PC-3): < 10%; inhibition at 10 µM (MCF7): 10.7%
CN1c2ccccc2C(=O)N(NC(=O)Nc2ccc(F)cc2)C1c1ccc(F)cc1 (centres unmarked) [Compound 6n, 1-(4-Fluorophenyl)-3-(2–(4-fluorophenyl)-1-methyl-4-oxo-1,4-dihydroquinazolin-3(2H)-yl)urea]	13.5 ± 2.22 µM	>7.4	39.4 ± 2.25 µM	19.9 ± 0.71 µM	1981.00 ± 209.9 pg/mL	< 10%	33.1%	14.4%	21%	< 10%	15.4%	21.7%	< 10%	28.1%	31.6%	23.2%	12.5%	38.1%	< 10%	41.9%	inhibition at 10 µM (OVCAR-5): < 10%; inhibition at 10 µM (NCI/ADR-RES): 23.2%; inhibition at 10 µM (786-0): < 10%; inhibition at 10 µM (CAKI-1): 25.1%; inhibition at 10 µM (RXF 393): < 10%; inhibition at 10 µM (PC-3): 38.1%; inhibition at 10 µM (MCF7): 29.9%
